From patent publication US9636317B2, “Compositions and methods of use of phorbol esters” (priority 2007, dated 2017)

Tests used:
[1] = system: primary AML; conditions: pharmacological interruption of ERK signaling; cited from earlier work
[2] = system: primary AML cells; test: Primary AML cultures ex vivo: cell viability, apoptosis assays and Western analysis of ERK; assay type: cell-based, human; conditions: primary AML samples
Description: In addition to protein kinase C and ERK activation, TPA is a known inducer of NF-κB, a pro-survival transcription factor often constitutively active in AML blasts and leukemic stem cells.

[3] = system: HIV; conditions: cited from earlier work
[4] = most polar organic solvents and water; cited from earlier work

Structure (SMILES): COc1cccc(-c2cc(=O)c3ccccc3o2)c1N [PD98059]
- primary AML survival [1]: decreased primary AML survival

Structure (SMILES): N#CC(=C(/N)Sc1ccccc1N)/C(C#N)=C(\N)Sc1ccccc1N [U0126]
- primary AML survival [1]: decreased primary AML survival

Structure (SMILES): C[C@@H]1C[C@H]2[C@@H]3CCC4=CC(=O)C=C[C@]4(C)[C@@]3(F)[C@@H](O)C[C@]2(C)[C@@]1(O)C(=O)CO [dexamethasone, reference compound]
- effect on TPA cytotoxicity [2]: enhance TPA cytotoxicity

Structure (SMILES): O=C(NOCC1CC1)c1ccc(F)c(F)c1Nc1ccc(I)cc1Cl [PD 184352]
- primary AML survival [1]: decreased primary AML survival

Structure (SMILES): CC(=O)O[C@@]12C[C@@H](C)[C@@]3(O)[C@@H](C=C(CO)C[C@]4(O)C(=O)C(C)=C[C@@H]34)[C@@H]1C2(C)C [Prostratin, 12-deoxyphorbol 13-acetate]
- HIV induced cell killing and viral replication [3]: some effectiveness for inhibiting HIV induced cell killing and viral replication
- effect on chronically-infected cell lines [3]: little or no effect on chronically-infected cell lines
- viral expression in latently-infected cell lines [3]: activated viral expression in latently-infected cell lines

Structure (SMILES): CC1=C[C@H]2[C@@]3(O)[C@H](C)[C@@H](O)[C@]4(O)[C@H]([C@@H]3C=C(CO)C[C@]2(O)C1=O)C4(C)C [Phorbol]
- solubility [4]: well soluble in most polar organic solvents and in water
